In brackets after ≈: the same amount, converted by molar mass.
How the values were obtained:
Assay in all cases: in vitro antibacterial evaluation, MIC by broth dilution
Type in all cases: cell-based
[1] = tested on: Enterococcus sp.; settings: broth dilution, 18 hours at 35° C.
Description: (§1) Methods for in vitro Antibacterial Evaluation (Table 1)
(§2) The minimum inhibitory concentration (MIC), the lowest concentration of the antibiotic which inhibits growth of the test organism, is determined by the broth dilution method using Muller-Hinton II […] (Baltimore Biological Laboratories) following the recommendations of the National Committee for Clinical Laboratory Standards [Methods for dilution antimicrobial susceptibility tests for bacteria that grow aerobically, approved standard M7-A2, National Committee for Clinical Laboratory Standards, Villanova, Pa.].
(§3) An inoculum level of 5×10^5 CFU/mL, and a range of antibiotic concentrations (64-0.06 μg/mL) is used. […] The test organisms include a spectrum of Gram-positive bacteria comprised of Staphylococcus sp., Streptococcus sp. and Enterococcus sp. These organisms include recent clinical isolates that are resistant to methicillin, penicillin and/or vancomycin.

[2] = tested on: Staphylococcus sp.
Description: as §1, §2, §3

[3] = tested on: Streptococcus sp.; settings: broth dilution, 18 hours at 35° C.
Description: as §1, §2, §3

[4] = tested on: Escherichia coli; settings: 18 hours at 35° C.
[5] = broth dilution, 18 hours at 35° C.
[6] = strain ATCC 29213; broth dilution, 18 hours at 35° C.
[7] = strain GC 1131; broth dilution, 18 hours at 35° C.
[8] = strain GC 3051; broth dilution, 18 hours at 35° C.
[9] = strain GC 3053; broth dilution, 18 hours at 35° C.
[10] = strain GC 4541; broth dilution, 18 hours at 35° C.
[11] = strain GC 4542; broth dilution, 18 hours at 35° C.
[12] = strain GC 4544; broth dilution, 18 hours at 35° C.
[13] = strain GC 4545; broth dilution, 18 hours at 35° C.

## CC(c1ccccc1)C1NC(=O)CNC(=O)C(CO)NC(=O)C(C(O)C2CN(c3ncccn3)C(=N)N2C2OC(CO)C(O)C(O)C2O)NC(=O)C(C(O)C2CNC(=Nc3ncccn3)N2)NC(=O)C(Cc2ccc(OC3OC(CO)C(OC4OC5COC6(OC5C(O)C4O)C4CC5CC(C4)CC6C5)C(O)C3O)cc2)NC1=O (stereo not shown) [Example 228]
[1]
  MIC Enterococcus avium (GC 4558): 8 µg/mL (≈ 5.05 µM)
  MIC Enterococcus faecalis (ATCC 29212): 32 µg/mL (≈ 20.2 µM)
  MIC Enterococcus faecalis (GC 2242): 32 µg/mL (≈ 20.2 µM)
  MIC Enterococcus faecalis (GC 2691): 32 µg/mL (≈ 20.2 µM)
  MIC Enterococcus faecalis (GC 3059): 32 µg/mL (≈ 20.2 µM)
  MIC Enterococcus faecalis (GC 4552): 32 µg/mL (≈ 20.2 µM)
  MIC Enterococcus faecalis (GC 4553): 16 µg/mL (≈ 10.1 µM)
  MIC Enterococcus faecalis (GC 4554): 32 µg/mL (≈ 20.2 µM)
  MIC Enterococcus faecalis (GC 6189): 32 µg/mL (≈ 20.2 µM)
  MIC Enterococcus faecium (GC 2243): 16 µg/mL (≈ 10.1 µM)
  MIC Enterococcus faecium (GC 4556): 32 µg/mL (≈ 20.2 µM)
  MIC Enterococcus faecium (GC 4557): 16 µg/mL (≈ 10.1 µM)
[1]; inoculum 5×10^5 CFU/mL, strain ATCC 29212
  MIC Enterococcus faecalis (ATCC 29212): 32 µg/mL (≈ 20.2 µM)
[1]; inoculum 5×10^5 CFU/mL, strain GC 2242
  MIC Enterococcus faecalis (GC 2242): 32 µg/mL (≈ 20.2 µM)
[1]; inoculum 5×10^5 CFU/mL, strain GC 2243
  MIC Enterococcus faecium (GC 2243): 16 µg/mL (≈ 10.1 µM)
[1]; inoculum 5×10^5 CFU/mL, strain GC 2691
  MIC Enterococcus faecalis (GC 2691): 32 µg/mL (≈ 20.2 µM)
[1]; inoculum 5×10^5 CFU/mL, strain GC 3059
  MIC Enterococcus faecalis (GC 3059): 32 µg/mL (≈ 20.2 µM)
[1]; inoculum 5×10^5 CFU/mL, strain GC 4552
  MIC Enterococcus faecalis (GC 4552): 32 µg/mL (≈ 20.2 µM)
[1]; inoculum 5×10^5 CFU/mL, strain GC 4553
  MIC Enterococcus faecalis (GC 4553): 16 µg/mL (≈ 10.1 µM)
[1]; inoculum 5×10^5 CFU/mL, strain GC 4554
  MIC Enterococcus faecalis (GC 4554): 32 µg/mL (≈ 20.2 µM)
[1]; inoculum 5×10^5 CFU/mL, strain GC 4556
  MIC Enterococcus faecium (GC 4556): 32 µg/mL (≈ 20.2 µM)
[1]; inoculum 5×10^5 CFU/mL, strain GC 4557
  MIC Enterococcus faecium (GC 4557): 16 µg/mL (≈ 10.1 µM)
[1]; inoculum 5×10^5 CFU/mL, strain GC 4558
  MIC Enterococcus avium (GC 4558): 8 µg/mL (≈ 5.05 µM)
[1]; inoculum 5×10^5 CFU/mL, strain GC 6189
  MIC Enterococcus faecalis (GC 6189): 32 µg/mL (≈ 20.2 µM)
[2]; [5]
  MIC Coagulase Negative Staphylococcus (GC 4547): 16 µg/mL (≈ 10.1 µM)
  MIC Coagulase Negative Staphylococcus (GC 4548): 16 µg/mL (≈ 10.1 µM)
  MIC Coagulase Negative Staphylococcus (GC 4549): 16 µg/mL (≈ 10.1 µM)
  MIC Coagulase Negative Staphylococcus (GC 4551): 16 µg/mL (≈ 10.1 µM)
  MIC Staphylococcus aureus-SMITH (GC 4543): 32 µg/mL (≈ 20.2 µM)
  MIC Staphylococcus haemolyticus (GC 4546): 16 µg/mL (≈ 10.1 µM)
[2]; broth dilution, 18 hours at 35° C.; strain GC 4543
  MIC Staphylococcus aureus-SMITH (GC 4543): 32 µg/mL (≈ 20.2 µM)
[2]; broth dilution, 18 hours at 35° C.; strain GC 4546
  MIC Staphylococcus haemolyticus (GC 4546): 16 µg/mL (≈ 10.1 µM)
[2]; broth dilution, 18 hours at 35° C.; strain GC 4547
  MIC Coagulase Negative Staphylococcus (GC 4547): 16 µg/mL (≈ 10.1 µM)
[2]; broth dilution, 18 hours at 35° C.; strain GC 4548
  MIC Coagulase Negative Staphylococcus (GC 4548): 16 µg/mL (≈ 10.1 µM)
[2]; broth dilution, 18 hours at 35° C.; strain GC 4549
  MIC Coagulase Negative Staphylococcus (GC 4549): 16 µg/mL (≈ 10.1 µM)
[2]; broth dilution, 18 hours at 35° C.; strain GC 4551
  MIC Coagulase Negative Staphylococcus (GC 4551): 16 µg/mL (≈ 10.1 µM)
[2]; [6]
  MIC Staphylococcus aureus (ATCC 29213): 32 µg/mL (≈ 20.2 µM)
[2]; [7]
  MIC Staphylococcus aureus (GC 1131): 32 µg/mL (≈ 20.2 µM)
[2]; [8]
  MIC Staphylococcus aureus (GC 3051): 32 µg/mL (≈ 20.2 µM)
[2]; [9]
  MIC Staphylococcus aureus (GC 3053): 32 µg/mL (≈ 20.2 µM)
[2]; [10]
  MIC Staphylococcus aureus (GC 4541): 32 µg/mL (≈ 20.2 µM)
[2]; [11]
  MIC Staphylococcus aureus (GC 4542): 32 µg/mL (≈ 20.2 µM)
[2]; [12]
  MIC Staphylococcus aureus (GC 4544): 32 µg/mL (≈ 20.2 µM)
[2]; [13]
  MIC Staphylococcus aureus (GC 4545): 32 µg/mL (≈ 20.2 µM)
[3]
  MIC Streptococcus agalactiae (GC 4564): 16 µg/mL (≈ 10.1 µM)
  MIC Streptococcus pneumoniae (ATCC 6301): 8 µg/mL (≈ 5.05 µM)
  MIC Streptococcus pneumoniae (GC 1894): 8 µg/mL (≈ 5.05 µM)
  MIC Streptococcus pneumoniae (GC 4565): 8 µg/mL (≈ 5.05 µM)
  MIC Streptococcus pyogenes (GC 4563): 8 µg/mL (≈ 5.05 µM)
[3]; inoculum 5×10^5 CFU/mL, strain ATCC 6301
  MIC Streptococcus pneumoniae (ATCC 6301): 8 µg/mL (≈ 5.05 µM)
[3]; inoculum 5×10^5 CFU/mL, strain GC 1894
  MIC Streptococcus pneumoniae (GC 1894): 8 µg/mL (≈ 5.05 µM)
[3]; inoculum 5×10^5 CFU/mL, strain GC 4563
  MIC Streptococcus pyogenes (GC 4563): 8 µg/mL (≈ 5.05 µM)
[3]; inoculum 5×10^5 CFU/mL, strain GC 4564
  MIC Streptococcus agalactiae (GC 4564): 16 µg/mL (≈ 10.1 µM)
[3]; inoculum 5×10^5 CFU/mL, strain GC 4565
  MIC Streptococcus pneumoniae (GC 4565): 8 µg/mL (≈ 5.05 µM)
[4]
  MIC Escherichia coli (ATCC 25922): >64 µg/mL
  MIC Escherichia coli (GC 4559): >64 µg/mL
  MIC Escherichia coli (GC 4560): 16 µg/mL (≈ 10.1 µM)

## CC(c1ccccc1)C1NC(=O)CNC(=O)C(CO)NC(=O)C(C(O)C2CNC(=N)N2C2OC(CO)C(O)C(O)C2O)NC(=O)C(C(O)C2CNC(=N)N2)NC(=O)C(Cc2ccc3oc(SCc4ccc5ccccc5c4)nc3c2)NC1=O (stereo not shown) [Example 46]
[1]; strain ATCC 29212
  MIC Enterococcus faecalis (ATCC 29212): 8 µg/mL (≈ 6.85 µM)
[1]; strain GC 2242
  MIC Enterococcus faecalis (GC 2242): 8 µg/mL (≈ 6.85 µM)
[1]; strain GC 2243
  MIC Enterococcus faecium (GC 2243): 4 µg/mL (≈ 3.42 µM)
[1]; strain GC 2691
  MIC Enterococcus faecalis (GC 2691): 16 µg/mL (≈ 13.7 µM)
[1]; strain GC 3059
  MIC Enterococcus faecalis (GC 3059): 32 µg/mL (≈ 27.4 µM)
[1]; strain GC 4552
  MIC Enterococcus faecalis (GC 4552): 8 µg/mL (≈ 6.85 µM)
[1]; strain GC 4553
  MIC Enterococcus faecalis (GC 4553): 4 µg/mL (≈ 3.42 µM)
[1]; strain GC 4554
  MIC Enterococcus faecalis (GC 4554): 16 µg/mL (≈ 13.7 µM)
[1]; strain GC 4556
  MIC Enterococcus faecium (GC 4556): 16 µg/mL (≈ 13.7 µM)
[1]; strain GC 4557
  MIC Enterococcus faecium (GC 4557): 8 µg/mL (≈ 6.85 µM)
[1]; strain GC 4558
  MIC Enterococcus avium (GC 4558): 4 µg/mL (≈ 3.42 µM)
[1]; strain GC 6189
  MIC Enterococcus faecalis (GC 6189): 16 µg/mL (≈ 13.7 µM)
[2]; [6]
  MIC Staphylococcus aureus (ATCC 29213): 8 µg/mL (≈ 6.85 µM)
[2]; [7]
  MIC Staphylococcus aureus (GC 1131): 8 µg/mL (≈ 6.85 µM)
[2]; [8]
  MIC Staphylococcus aureus (GC 3051): 8 µg/mL (≈ 6.85 µM)
[2]; [9]
  MIC Staphylococcus aureus (GC 3053): 8 µg/mL (≈ 6.85 µM)
[2]; [10]
  MIC Staphylococcus aureus (GC 4541): 8 µg/mL (≈ 6.85 µM)
[2]; [11]
  MIC Staphylococcus aureus (GC 4542): 8 µg/mL (≈ 6.85 µM)
[2]; strain GC 4543; broth dilution, 18 hours at 35° C.
  MIC Staphylococcus aureus-SMITH (GC 4543): 4 µg/mL (≈ 3.42 µM)
[2]; [12]
  MIC Staphylococcus aureus (GC 4544): 8 µg/mL (≈ 6.85 µM)
[2]; [13]
  MIC Staphylococcus aureus (GC 4545): 8 µg/mL (≈ 6.85 µM)
[2]; strain GC 4546; broth dilution, 18 hours at 35° C.
  MIC Staphylococcus haemolyticus (GC 4546): 8 µg/mL (≈ 6.85 µM)
[2]; strain GC 4547; broth dilution, 18 hours at 35° C.
  MIC Coagulase Negative Staphylococcus (GC 4547): 4 µg/mL (≈ 3.42 µM)
[2]; strain GC 4548; broth dilution, 18 hours at 35° C.
  MIC Coagulase Negative Staphylococcus (GC 4548): 8 µg/mL (≈ 6.85 µM)
[2]; strain GC 4549; broth dilution, 18 hours at 35° C.
  MIC Coagulase Negative Staphylococcus (GC 4549): 2 µg/mL (≈ 1.71 µM)
[2]; strain GC 4551; broth dilution, 18 hours at 35° C.
  MIC Coagulase Negative Staphylococcus (GC 4551): 4 µg/mL (≈ 3.42 µM)
[3]; strain ATCC 6301
  MIC Streptococcus pneumoniae (ATCC 6301): 8 µg/mL (≈ 6.85 µM)
[3]; strain GC 1894
  MIC Streptococcus pneumoniae (GC 1894): 8 µg/mL (≈ 6.85 µM)
[3]; strain GC 4563
  MIC Streptococcus pyogenes (GC 4563): 1 µg/mL (≈ 0.856 µM)
[3]; strain GC 4564
  MIC Streptococcus agalactiae (GC 4564): 8 µg/mL (≈ 6.85 µM)
[3]; strain GC 4565
  MIC Streptococcus pneumoniae (GC 4565): 8 µg/mL (≈ 6.85 µM)
[4]; strain ATCC 25922, broth dilution
  MIC Escherichia coli (ATCC 25922): 64 µg/mL (≈ 54.8 µM)
[4]; strain GC 4559, broth dilution
  MIC Escherichia coli (GC 4559): 64 µg/mL (≈ 54.8 µM)
[4]; strain GC 4560, broth dilution
  MIC Escherichia coli (GC 4560): 16 µg/mL (≈ 13.7 µM)
